For one series, the system named is Cryptosporidium parvum. In words: Antiparasitic activity against Cryptosporidium parvum infected in human HCT-8 cells assessed as parasitic growth inhibition incubated for 48 hrs by fluorescence microscopic analysis. The class given is functional, organism-based. The settings on record: HCT-8, 48 h.
Another series concerns HCT-8. In words: Cytotoxicity against human HCT-8 cells assessed as reduction in cell number upto 50 uM incubated for 48 hrs by. The class given is toxicity, cell-based. The conditions noted are these: hct-8, 48 h.
Series [1] has as its target Voltage-gated inwardly rectifying potassium channel KCNH2 (Homo sapiens, UniProt Q12809). In words: Displacement of [3H]Dofetilide from human ERG at 30 uM by automated patch clamp assay relative to control. The conditions noted are these: 30 µM.

A value given as a limit tells only on which side of the number the result lay.

Sequence of Voltage-gated inwardly rectifying potassium channel KCNH2 (Q12809 whole entry): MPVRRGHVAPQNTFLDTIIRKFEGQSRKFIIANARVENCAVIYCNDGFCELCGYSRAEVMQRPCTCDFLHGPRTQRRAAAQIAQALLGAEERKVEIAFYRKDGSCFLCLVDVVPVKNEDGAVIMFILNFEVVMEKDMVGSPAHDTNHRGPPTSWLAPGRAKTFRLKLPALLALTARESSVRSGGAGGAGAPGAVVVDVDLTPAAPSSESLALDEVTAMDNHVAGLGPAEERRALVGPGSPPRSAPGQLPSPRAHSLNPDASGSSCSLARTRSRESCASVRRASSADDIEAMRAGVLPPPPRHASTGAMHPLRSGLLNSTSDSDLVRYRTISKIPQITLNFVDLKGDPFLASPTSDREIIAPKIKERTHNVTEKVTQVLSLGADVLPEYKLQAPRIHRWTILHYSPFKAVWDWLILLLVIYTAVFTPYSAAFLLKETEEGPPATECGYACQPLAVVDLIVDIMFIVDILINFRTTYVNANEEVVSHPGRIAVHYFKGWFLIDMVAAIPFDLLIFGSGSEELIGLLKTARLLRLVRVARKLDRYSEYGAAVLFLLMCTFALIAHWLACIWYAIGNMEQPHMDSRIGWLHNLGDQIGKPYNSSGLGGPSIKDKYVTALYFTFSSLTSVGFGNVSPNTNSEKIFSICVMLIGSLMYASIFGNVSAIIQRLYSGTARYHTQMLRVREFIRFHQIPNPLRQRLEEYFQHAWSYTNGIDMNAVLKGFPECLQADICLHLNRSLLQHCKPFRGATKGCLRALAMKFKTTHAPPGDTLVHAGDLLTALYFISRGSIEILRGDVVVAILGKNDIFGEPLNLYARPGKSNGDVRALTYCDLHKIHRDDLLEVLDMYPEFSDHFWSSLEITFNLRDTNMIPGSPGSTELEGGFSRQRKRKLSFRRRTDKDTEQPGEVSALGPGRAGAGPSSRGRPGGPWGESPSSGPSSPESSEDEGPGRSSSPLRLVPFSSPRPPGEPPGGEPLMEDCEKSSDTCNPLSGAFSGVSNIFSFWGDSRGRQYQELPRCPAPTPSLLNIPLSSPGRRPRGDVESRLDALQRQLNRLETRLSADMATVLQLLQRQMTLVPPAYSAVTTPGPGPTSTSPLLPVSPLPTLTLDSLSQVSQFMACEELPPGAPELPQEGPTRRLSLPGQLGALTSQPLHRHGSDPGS

Turning to `Cc1cc(CC(=O)N2CCN(c3ccc4nncn4n3)CC2)cc(C(F)(F)F)c1F`, the EC50 in the series with Cryptosporidium parvum stood at 70 nM. In addition, the Activity result with HCT-8 is listed as “Non-Toxic”. On to `N#Cc1cc(CC(=O)N2CCN(c3ccc4nncn4n3)CC2)ccc1F`, for which the EC50 with Cryptosporidium parvum is 2100 nM. In the series with HCT-8, the Activity result is reported as “Non-Toxic”. For `O=C(Cc1ccc(C(F)(F)F)c(Cl)c1)N1CCN(c2ccc3nncn3n2)CC1` the same measures were 340 nM and “Non-Toxic”. For `O=C(Cc1ccc(F)c(F)c1)N1CCN(c2ccc3nncn3n2)CC1` the same measures were 760 nM and “Non-Toxic”. For `O=C(Cc1ccc(F)c(Cl)c1)N1CCN(c2ccc3nncn3n2)CC1` the same measures were 240 nM and “Non-Toxic”. As for `O=C(Cc1ccc(F)cc1)N1CCN(c2ccc3nncn3n2)CC1`, in the series with HCT-8, the Activity entry is “Non-Toxic”. For `O=C(Cc1ccc([N+](=O)[O-])c(F)c1)N1CCN(c2ccc3nncn3n2)CC1`, in the series on Cryptosporidium parvum, the concentration giving a half-maximal response (EC50) was 25000 nM. For the same compound, the Activity entry in the series with HCT-8 is “Non-Toxic”. On to `O=C(Cc1ccc(S(F)(F)(F)(F)F)cc1)N1CCN(c2ccc3nncn3n2)CC1`, for which the EC50 with Cryptosporidium parvum was 12000 nM. The Activity result in the series on HCT-8 is “Non-Toxic”.

With `O=C(Cc1ccc(CO)cc1)N1CCN(c2ccc3nncn3n2)CC1`, in the series with Cryptosporidium parvum, the EC50 is over 25000 nM. Moreover, in the series on HCT-8, the Activity entry was “Non-Toxic”.

With `O=C(Cc1cccc(Br)c1)N1CCN(c2ccc3nncn3n2)CC1`, the EC50 in the series on Cryptosporidium parvum turned out to be 2200 nM. Also, the Activity result in the series on HCT-8 was “Non-Toxic”.

Turning to `O=C(Cc1ccc(F)c(Br)c1)N1CCN(c2ccc3nncn3n2)CC1`, the EC50 with Cryptosporidium parvum stood at 230 nM. Also, in the series with HCT-8, the Activity result is listed as “Non-Toxic”.

Regarding `O=C(Cc1cccc(C(F)(F)F)c1F)N1CCN(c2ccc3nncn3n2)CC1`, the 50% effective concentration (EC50) with Cryptosporidium parvum amounted to 62000 nM. Also, in the series with HCT-8, the Activity entry is on record as “Non-Toxic”. The matching figures for `O=C(Cc1ccccc1F)N1CCN(c2ccc3nncn3n2)CC1`: over 60000 nM and “Non-Toxic”.

`O=C(Cc1ccc(F)c([N+](=O)[O-])c1)N1CCN(c2ccc3nncn3n2)CC1`: the EC50 with Cryptosporidium parvum was 620 nM. For the same compound, in the series with HCT-8, the Activity entry is “Non-Toxic”. For `O=C(Cc1ccc(C(F)(F)F)c(F)c1)N1CCN(c2ccc3nncn3n2)CC1` the same measures were 2000 nM and “Non-Toxic”. `O=C(Cc1cc(C(F)(F)F)cc(C(F)(F)F)c1)N1CCN(c2ccc3nncn3n2)CC1`: the half-maximal effective concentration (EC50) in the series on Cryptosporidium parvum came out at 320 nM. Moreover, the results for the Activity (in series [1]; with HCT-8) were 54% and “Non-Toxic”, respectively.

As to `O=C(Cc1ccc(Br)c(F)c1)N1CCN(c2ccc3nncn3n2)CC1`, the EC50 in the series on Cryptosporidium parvum amounted to 770 nM. In addition, the Activity entry in the series with HCT-8 is “Non-Toxic”. The matching figures for `O=C(Cc1c(Cl)cccc1Cl)N1CCN(c2ccc3nncn3n2)CC1`: over 25000 nM and “Non-Toxic”. The matching figures for `Cc1cc(CC(=O)N2CCN(c3ccc4nncn4n3)CC2)ccc1Cl`: 270 nM and “Non-Toxic”. With `O=C(Cc1cc(C(F)(F)F)ccc1F)N1CCN(c2ccc3nncn3n2)CC1`, the EC50 with Cryptosporidium parvum amounted to 15000 nM. Also, in the series with HCT-8, the Activity result was “Non-Toxic”. For `O=C(Cc1ccc(Cl)c(F)c1)N1CCN(c2ccc3nncn3n2)CC1` the same measures were 410 nM and “Non-Toxic”.

As for `O=C(Cc1ccc([N+](=O)[O-])cc1)N1CCN(c2ccc3nncn3n2)CC1`, the Activity result in the series with HCT-8 is “Non-Toxic”.

Take `O=C(Cc1cccc(Cl)c1Cl)N1CCN(c2ccc3nncn3n2)CC1`: the EC50 in the series on Cryptosporidium parvum is over 25000 nM. Further, the Activity entry with HCT-8 is listed as “Non-Toxic”.

On to `O=C(Cc1cccc([N+](=O)[O-])c1)N1CCN(c2ccc3nncn3n2)CC1`, for which the EC50 in the series with Cryptosporidium parvum is 18000 nM. Besides, the Activity result in the series on HCT-8 is “Non-Toxic”.

`O=C(Cc1ccccc1Br)N1CCN(c2ccc3nncn3n2)CC1`: the EC50 in the series with Cryptosporidium parvum was over 50000 nM. Further, the Activity entry in the series on HCT-8 is listed as “Non-Toxic”.

With `Cc1ccc(CC(=O)N2CCN(c3ccc4nncn4n3)CC2)cc1F`, the EC50 in the series on Cryptosporidium parvum was 5300 nM. The Activity entry in the series on HCT-8 is recorded as “Non-Toxic”. For `Cc1cc(CC(=O)N2CCN(c3ccc4nncn4n3)CC2)ccc1F` the same measures were 370 nM and “Non-Toxic”. For `O=C(Cc1ccc(Br)cc1)N1CCN(c2ccc3nncn3n2)CC1` the same measures were 1100 nM and “Non-Toxic”. For `O=C(Cc1ccc(O)c(F)c1)N1CCN(c2ccc3nncn3n2)CC1` the same measures were 53000 nM and “Non-Toxic”.

As for `O=C(Cc1cccc(Cl)c1)N1CCN(c2ccc3nncn3n2)CC1`, the Activity result with HCT-8 is “Non-Toxic”. In the case of `COc1ccc(CC(=O)N2CCN(c3ccc4nncn4n3)CC2)cc1`, the Activity result in the series with HCT-8 is recorded as “Non-Toxic”.

Take `N#Cc1ccc(CC(=O)N2CCN(c3ccc4nncn4n3)CC2)cc1F`: the EC50 in the series with Cryptosporidium parvum was 1600 nM. In the series on HCT-8, the Activity entry was “Non-Toxic”.

On to `O=C(Cc1ccc(Cl)c(C(F)(F)F)c1)N1CCN(c2ccc3nncn3n2)CC1`, for which the EC50 with Cryptosporidium parvum turned out to be 270 nM. In addition, the Activity result in the series on HCT-8 is reported as “Non-Toxic”. For `O=C(Cc1cccc(S(F)(F)(F)(F)F)c1)N1CCN(c2ccc3nncn3n2)CC1` the same measures were 1100 nM and “Non-Toxic”. The matching figures for `O=C(Cc1cc(F)cc(F)c1)N1CCN(c2ccc3nncn3n2)CC1`: 5700 nM and “Non-Toxic”.

With `N#Cc1ccc(CC(=O)N2CCN(c3ccc4nncn4n3)CC2)cc1`, the Activity entry in the series on HCT-8 is “Non-Toxic”. Regarding `O=C(Cc1cccc(F)c1)N1CCN(c2ccc3nncn3n2)CC1`, the EC50 in the series with Cryptosporidium parvum was 14000 nM. Also, in the series on HCT-8, the Activity result was “Non-Toxic”. The matching figures for `O=C(Cc1cc(Cl)cc(C(F)(F)F)c1)N1CCN(c2ccc3nncn3n2)CC1`: 410 nM and “Non-Toxic”. The matching figures for `O=C(Cc1cccc(-c2ccccc2)c1)N1CCN(c2ccc3nncn3n2)CC1`: 25000 nM and “Non-Toxic”. For `O=C(Cc1cc(Cl)ccc1Cl)N1CCN(c2ccc3nncn3n2)CC1` the same measures were 58000 nM and “Non-Toxic”. Turning to `Cc1cc(F)ccc1CC(=O)N1CCN(c2ccc3nncn3n2)CC1`, the EC50 with Cryptosporidium parvum is 22000 nM. The Activity entry in the series on HCT-8 is “Non-Toxic”. The matching figures for `O=C(Cc1ccc(O)cc1)N1CCN(c2ccc3nncn3n2)CC1`: over 50000 nM and “Non-Toxic”. Turning to `Cc1ccc(CC(=O)N2CCN(c3ccc4nncn4n3)CC2)cc1`, in the series on Cryptosporidium parvum, the EC50 is 10000 nM. For the same compound, in the series with HCT-8, the Activity entry was “Non-Toxic”.

With `COc1cc(CC(=O)N2CCN(c3ccc4nncn4n3)CC2)ccc1F`, in the series with Cryptosporidium parvum, the EC50 is 1000 nM. In the series on HCT-8, the Activity result is “Non-Toxic”. Take `O=C(Cc1cccc(C(F)(F)F)c1)N1CCN(c2ccc3nncn3n2)CC1`: the EC50 with Cryptosporidium parvum is 1100 nM. In the series with HCT-8, the Activity entry is listed as “Non-Toxic”. With `O=C(Cc1ccccc1Cl)N1CCN(c2ccc3nncn3n2)CC1`, the EC50 in the series on Cryptosporidium parvum is over 25000 nM. Moreover, the Activity entry in the series with HCT-8 was “Non-Toxic”.

As for `O=C(Cc1ccc(C(F)(F)F)cc1)N1CCN(c2ccc3nncn3n2)CC1`, the concentration for a half-maximal effect (EC50) in the series on Cryptosporidium parvum was 5500 nM. In the series with HCT-8, the Activity entry is listed as “Non-Toxic”. With `Cc1cccc(CC(=O)N2CCN(c3ccc4nncn4n3)CC2)c1`, the EC50 with Cryptosporidium parvum was 12000 nM. Besides, in the series with HCT-8, the Activity result is “Non-Toxic”. The matching figures for `O=C(Cc1cc(F)c(F)c(F)c1)N1CCN(c2ccc3nncn3n2)CC1`: 400 nM and “Non-Toxic”. The matching figures for `O=C(Cc1cccc(O)c1)N1CCN(c2ccc3nncn3n2)CC1`: 34000 nM and “Non-Toxic”. For `COc1ccc(CC(=O)N2CCN(c3ccc4nncn4n3)CC2)cc1F` the same measures were 12000 nM and “Non-Toxic”. Regarding `O=C(Cc1ccc(Cl)c(Br)c1)N1CCN(c2ccc3nncn3n2)CC1`, the concentration giving a half-maximal response (EC50) in the series on Cryptosporidium parvum was found to be 120 nM. For the same compound, the Activity result with HCT-8 is “Non-Toxic”. Take `N#Cc1cccc(CC(=O)N2CCN(c3ccc4nncn4n3)CC2)c1`: the 50% effective concentration (EC50) in the series with Cryptosporidium parvum came out at 38000 nM. Besides, the Activity entry with HCT-8 is given as “Non-Toxic”. For `C#Cc1ccc(CC(=O)N2CCN(c3ccc4nncn4n3)CC2)cc1` the same measures were 880 nM and “Non-Toxic”. The matching figures for `O=C(Cc1cc(F)cc(C(F)(F)F)c1)N1CCN(c2ccc3nncn3n2)CC1`: 1700 nM and “Non-Toxic”. For `O=C(Cc1cc(F)cc(Cl)c1)N1CCN(c2ccc3nncn3n2)CC1` the same measures were 880 nM and “Non-Toxic”. With `Cc1ccc(CC(=O)N2CCN(c3ccc4nncn4n3)CC2)cc1Cl`, the EC50 in the series with Cryptosporidium parvum was 1100 nM. Moreover, the Activity entry in the series on HCT-8 is reported as “Non-Toxic”.

As for `COc1cccc(CC(=O)N2CCN(c3ccc4nncn4n3)CC2)c1`, the Activity entry in the series with HCT-8 was “Non-Toxic”. For `O=C(Cc1ccc(Cl)cc1Cl)N1CCN(c2ccc3nncn3n2)CC1`, the EC50 in the series on Cryptosporidium parvum is over 25000 nM. Moreover, in the series with HCT-8, the Activity result is reported as “Non-Toxic”. For `O=C(Cc1ccc(F)c(O)c1)N1CCN(c2ccc3nncn3n2)CC1`, in the series with Cryptosporidium parvum, the EC50 was over 50000 nM. Moreover, the Activity result with HCT-8 was “Non-Toxic”. `Cc1ccccc1CC(=O)N1CCN(c2ccc3nncn3n2)CC1`: in the series with Cryptosporidium parvum, the EC50 was over 50000 nM. In addition, the Activity entry in the series on HCT-8 is listed as “Non-Toxic”. The matching figures for `O=C(Cc1ccc(F)c(CO)c1)N1CCN(c2ccc3nncn3n2)CC1`: 17000 nM and “Non-Toxic”. For `O=C(Cc1cc(Cl)cc(Cl)c1)N1CCN(c2ccc3nncn3n2)CC1` the same measures were 1200 nM and “Non-Toxic”. For `O=C(Cc1ccc(-c2ccccc2)cc1)N1CCN(c2ccc3nncn3n2)CC1` the same measures were 56000 nM and “Non-Toxic”.

Turning to `O=C(Cc1ccc(F)c(OC(F)(F)F)c1)N1CCN(c2ccc3nncn3n2)CC1`, the EC50 with Cryptosporidium parvum was found to be 670 nM. Moreover, the Activity result in the series on HCT-8 was “Non-Toxic”.

For the compound `O=C(Cc1ccc(Br)c(Cl)c1)N1CCN(c2ccc3nncn3n2)CC1`, the EC50 in the series with Cryptosporidium parvum stood at 250 nM. Besides, in the series on HCT-8, the Activity entry is “Non-Toxic”. For `O=C(Cc1ccc(Cl)cc1)N1CCN(c2ccc3nncn3n2)CC1`, the Activity result in the series with HCT-8 is on record as “Non-Toxic”.

The values above are taken from ChEMBL document CHEMBL5338813 (J Med Chem, 2023).
